Assay results taken from patent publication US4088778A, “Method for the treatment of hypertension” (priority 1975, dated 1978).

Key:
Acute toxicity on rats = type: in vivo; settings: mice and rats, maximum amount that can be administered
Excerpt: Toxicities of TN and TA will now be described.

[1] = Clinical Test I, double blind: blood pressure; type: in vivo, human patients; settings: for Maximum Blood Pressure in Hypertensives, Average Value ± S.D. / Maximum Blood Pressure, Average Value±S.D.: in mmHg (unit assumed)
Procedure: 94 patients of hypertension or arteriosclerosis having subjective symptoms were tested, and some of them suffered from complications such as ischemia heart disease, hypertensive heart disease and encephalomalacia.
As the active drug, there were employed hard capsules, each containing 100 mg of TN.
Two capsules were orally administered at one time, and the administration was conducted three times a day after eating. The period of the administration was principally 4 weeks or 6 weeks. During this period, the administration was performed continuously. Combined administration of drugs having the same function as that of TN (vitamin E drugs, nicotinic acid, its derivatives and peripheral vasolidators) was prohibited. Drugs which had been continuously administered since before the start of the administration of TN were similarly administered according to the disease case and symptom, and change of the prescription during the test was avoided.
With respect to data collected separately in the TN group and the P group, the significant difference was examined according to the statistical method.

[2] = Experiment on young SHR (rats of spontaneous hypertension); type: in vivo, rats (7-week-old female SHR); settings: for dead rats within 6 weeks from the start of the administration: control 5 among 11; for dead rats within 2 weeks from the start of administration: judged pneumonia, control 3
Procedure: Experiments were conducted by using two classes of rats of spontaneous hypertension (hereinafter referred to as "SHR"; provided by Nippon Rat K.K.) differing in the age. In the first experiment, 9-month-old chronic […] SHR (hereinafter referred to as "old SHR"), and in the second experiment, 7-week-old SHR in which hypertension was advancing (hereinafter referred to as "young SHR") was used.
(B) Experiment on Young SHR:
72 of 7-week-old female SHR (having a body weight of 130 to 175 g) were divided into 9 cages, each consisting of 8 rats. Service water was given as drinking water to rats of two cages among these 9 cages, and these rats were compared with other rats which were given a 1% aqueous solution of sodium chloride as drinking water. In each of the […] cages of rats to which the sodium chloride solution was given, no agent was administered to 2 of 8 rats, 20 mg/Kg of TN was administered to another 2 rats, 100 mg/Kg of TN was administered to still another 2 rats, and 88 mg/Kg of TA was administered to the remaining 2 rats.
After 2 weeks' feeding with the sodium chloride solution, administration was conducted once a day. Within 2 weeks from the start of administration,3 rats in the Control (non-administered) group, one rat in the 20 mg/Kg TN administered group, 3 rats in the 100 mg/Kg TN administered group, 3 rats in the 88 mg/Kg TA administered group and 4 rats in the service water given group were dead. In view of the body weight decrease and the snivel secretion and from the results of autopsy, it was judged that each of them died of pneumonia. The rats that died prior to initiation of the administration were not taken in account in evaluating the experimental results.

[3] = Clinical Experiment II: general improvement; type: in vivo, human patients
Procedure: (§1) 75 patients of hypertension or arteriosclerosis having subjective symptoms were tested. Some of them suffered from complications such as ischemia heart disease and cerebral thrombosis. They are detailed in Table 11.
(§2) Two capsules were administered at one time, and the administration was conducted 3 times per day after eating. The duration of the continuous administration was 4 weeks. Combined use of drugs having the same functions as those of TN (vitamin E drugs, nicotinic acid, its derivatives and peripheral vasolidators) and minor tranquilizers was prohibited.
With respect to patients of hypertension alone, the general improvement was evaluated collectively based on subjective symptoms and clinical test data to obtain results shown in Table 23.

[4] = Clinical Experiment II: side effects; type: in vivo, human patients
Procedure: as §1, §2

[5] = Clinical Experiment II: liver function test; type: in vivo, human patients; design: GOT, Average Value / GPT, Average Value / LDH, Average Value / ALP, Average Value: unit not given here
Procedure: as §1, §2

[6] = Clinical Experiment II, double blind: blood pressure; type: in vivo, human patients; settings: for Maximum Pressure, Average Value, all patients / Maximum Pressure, Average Value, patients of hypertension / Maximum Pressure, Average Value, no hypotensive agent in combination with TN / Maximum Pressure, Average Value, hypotensive agent administered in combination with TN: in mmHg (unit assumed)
Procedure: Results of the clinical experiment conducted according to the double blind method in a different hospital will now be described.
as §1, §2
(a) Results of Blood Pressure Test: Variations of the blood pressure in all the patients and in the patients of hypertension alone are shown in Tables 12 and 13.
The change of the blood pressure in the patients of hypertension to whom a hypotensive agent was administrated in combination with TN is shown in Table 14, and the change of the blood pressure in the patients to whom no hypotensive agent was administrated in combination with TN is shown in Table 15.
In each of the foregoing Tables, N indicates the number of the patients, and S.D. denotes the standard deviation.

[7] = 2 weeks, N 34, TN 200 mg three times a day
[8] = 4 weeks, N 38, TN 200 mg three times a day
[9] = 6 weeks, N 20, TN 200 mg three times a day
[10] = before administration, N 43, all patients (Table 6)
[11] = conclusion of both clinical experiments

Cc1c(C)c2c(c(C)c1OC(=O)c1cccnc1)CCC(C)(CCCC(C)CCCC(C)CCCC(C)C)O2 (racemic) [TN, dl-α-tocopheryl nicotinate]
animals killed in acute toxicity test (Acute toxicity on rats): no test animal was killed | maximum blood pressure in patients of hypertension ([1]; 2, 4 or 6 weeks' administration): lowered by 2, 4 or 6 weeks' administration below the maximum blood pressure before the start of the administration | Maximum Blood Pressure in Hypertensives, Average Value ± S.D. ([1]; 2 weeks, N 28, P < 0.05 vs before): 143.8 ± 21.0 | Minimum Blood Pressure, Average Value±S.D. [1, 7]: 82.4±11.4 | Maximum Blood Pressure, Average Value±S.D. [1, 7]: 139.7±21.1 | Maximum Blood Pressure in Hypertensives, Average Value ± S.D. ([1]; 4 weeks, N 29, P < 0.02 vs before): 143.1 ± 21.1 | Minimum Blood Pressure, Average Value±S.D. [1, 8]: 80.6±10.3 | Maximum Blood Pressure, Average Value±S.D. [1, 8]: 140.0±20.3 | Maximum Blood Pressure in Hypertensives, Average Value ± S.D. ([1]; 6 weeks, N 13, P < 0.05 vs before): 139.2 ± 16.8 | Minimum Blood Pressure, Average Value±S.D. [1, 9]: 79.1±7.0 | Maximum Blood Pressure, Average Value±S.D. [1, 9]: 138.1±15.2 | patients in whom administration was interrupted ([1]; TN 200 mg three times a day, 4 or 6 weeks, P group 3 patients): 2 patients | Minimum Blood Pressure, Average Value±S.D. [1, 10]: 84.4±13.7 | Maximum Blood Pressure, Average Value±S.D. [1, 10]: 147.6±23.6 | Maximum Blood Pressure in Hypertensives, Average Value ± S.D. ([1]; before administration, same 13 patients as 6 weeks): 151.2 ± 28.9 | Maximum Blood Pressure in Hypertensives, Average Value ± S.D. ([1]; before administration, same 28 patients as 2 weeks): 151.0 ± 22.1 | Maximum Blood Pressure in Hypertensives, Average Value ± S.D. ([1]; before administration, same 29 patients as 4 weeks): 154.6 ± 24.8 | dead rats within 6 weeks from the start of the administration ([2]; 20 mg/kg TN, among 13 rats): 3 rats | dead rats within 2 weeks from the start of administration ([2]; 20 mg/kg TN): one | dead rats within 6 weeks from the start of the administration ([2]; 100 mg/kg TN, among 11 rats): 4 rats | dead rats within 2 weeks from the start of administration ([2]; 100 mg/kg TN): 3 rats | General improvement: Improvement Ratio ([3]; P group 52.94, P < 0.05): 86.36% | general improvement versus P group ([3]; conclusion of both clinical experiments, significance lower than 0.5%): significantly excellent over that in the P group at a level of significance lower than 0.5% | general improvement versus P group ([3]; level of significance lower than 5%): excellent over that in the P group at a level of significance lower than 5% | General improvement: Not Changed ([3]; number of patients, total 22): 3 | General improvement: Partial Improvement ([3]; number of patients, total 22): 7 | General improvement: Remarkable Improvement ([3]; number of patients, total 22): 4 | General improvement: Slight Improvement ([3]; number of patients, total 22): 8 | General improvement: Worsened ([3]; number of patients, total 22): 0 | side effect: constipation ([4]; among 41 patients): another patient complained of constipation | side effect: light lack of appetite ([4]; among 41 patients): one | side effects in other patients ([4]; among 41 patients): no side effect was observed | side effects versus conventional hypotensive agents [4, 11]: much more reduced in TN than in conventional hypotensive agents | other various blood tests and the like: undesirable side effects ([4]; human, in vivo): None of results of other various blood tests and the like were suggestive of undesirable, side effects | variation of GOT, GPT, LDH and ALP ([5]; Table 16): the variation was within the normal region | GOT, Average Value ([5]; after administration, N 29, S.D. ±9.51): 24.90 | ALP, Average Value ([5]; after administration, N 30, S.D. ±2.21): 7.21 | GPT, Average Value ([5]; after administration, N 30, S.D. ±13.40): 18.73 | LDH, Average Value ([5]; after administration, N 30, S.D. ±53.94): 245.03 | ALP, Average Value ([5]; before administration, N 34, S.D. ±2.36): 7.37 | LDH, Average Value ([5]; before administration, N 36, S.D. ±72.42): 251.28 | GOT, Average Value ([5]; before administration, N 37, S.D. ±14.92): 28.59 | GPT, Average Value ([5]; before administration, N 37, S.D. ±19.46): 22.73 | tendency of reduction of GOT and GPT ([5]; versus P group): greater in the TN administered group than in the P group | hypotensive effect as compared with the P group ([6]; Tables 12 to 15, hypertension alone significant at level lower than 5%): the hypotensive effect was attained in the TN administrated group as compared with the P group | Maximum Pressure, Average Value, all patients ([6]; after administration (200 mg TN 3 times per day, 4 weeks), N 35, S.D. ±23.65): 141.40 | Minimum Pressure, Average Value, patients of hypertension ([6]; after administration (4 weeks), N 22, S.D. ±13.08): 87.45 | Maximum Pressure, Average Value, patients of hypertension ([6]; after administration (4 weeks), N 22, S.D. ±20.69, P < 0.05): 148.59 | Minimum Pressure, Average Value, all patients ([6]; after administration (4 weeks), N 35, S.D. ±13.64): 81.89 | Minimum Pressure, Average Value, no hypotensive agent in combination with TN ([6]; after administration, N 8, S.D. ±13.34): 87.50 | Maximum Pressure, Average Value, no hypotensive agent in combination with TN ([6]; after administration, N 8, S.D. ±19.95, P < 0.1): 146.13 | Minimum Pressure, Average Value, hypotensive agent administered in combination with TN ([6]; after administration, N 14, S.D. ±13.44): 87.43 | Maximum Pressure, Average Value, hypotensive agent administered in combination with TN ([6]; after administration, N 14, S.D. ±21.71): 150.00 | Minimum Pressure, Average Value, no hypotensive agent in combination with TN ([6]; before administration, N 8, S.D. ±16.40): 87.75 | Maximum Pressure, Average Value, no hypotensive agent in combination with TN ([6]; before administration, N 8, S.D. ±22.60): 161.50 | Minimum Pressure, Average Value, hypotensive agent administered in combination with TN ([6]; before administration, N 14, S.D. ±10.75): 89.71 | Maximum Pressure, Average Value, hypotensive agent administered in combination with TN ([6]; before administration, N 14, S.D. ±17.29): 159.29 | Minimum Pressure, Average Value, patients of hypertension ([6]; before administration, N 22, S.D. ±12.74): 89.00 | Maximum Pressure, Average Value, patients of hypertension ([6]; before administration, N 22, S.D. ±18.88): 160.09 | Minimum Pressure, Average Value, all patients ([6]; before administration, N 38, S.D. ±14.78): 81.37 | Maximum Pressure, Average Value, all patients ([6]; before administration, N 38, S.D. ±25.14): 144.63 | efficacy and safety conclusion [6, 11]: very effective and safe hypotensive agent | hypotensive effect on patients of hypertension versus P group [6, 11]: higher in the TN administered group than in the P group | effect durability ([6]; general conclusion): high effect durability
